Values quoted from earlier work as cited in PubChem BioAssay AID1259409 (Chemical Carcinogenesis Research Information System (CCRIS), 2018).

Tested on: rodent chemically induced tumor inhibition, incidence and multiplicity
Assay: CCRIS tumor inhibitor studies
Settings: Route [Inhibitor]: ORAL

## O=C1O[C@H]([C@@H](O)CO)C(O)=C1O
Carcinogen: 1,2-DIMETHYLHYDRAZINE, 540-73-8, Dose [Inhibitor]: 0.3% IN DRINKING WATER BEGINNING POST LAST CARCINOGEN DOSE AND CONTINUING FOR DURATION OF STUDY (STUDY DURATION: 55 WK), Species: MOUSE, Strain/Sex: CBA/FEMALE, Target Tissue: Type of Lesion: UTERUS (ENDOMETRIUM): STROMAL SARCOMA, Dose [Carcinogen]: 8 MG/KG BW IN WATER 1/WK FOR 8 WK, Promoter: ESTRADIOL PROPIONATE, 113-38-2
  tumour outcome (control, treated, inhibition, significance): 13/40 (33%), 3/40 (8%), 77%, not calculated
Carcinogen: 1,2-DIMETHYLHYDRAZINE, 540-73-8, Dose [Inhibitor]: 1% IN 20% FAT DIET DAILY STARTING 2 WK BEFORE CARCINOGEN TREATMENT AND CONTINUING FOR DURATION OF STUDY (STUDY DURATION:, Species: RAT, Strain/Sex: F344/FEMALE, Target Tissue: Type of Lesion: COLON: ADENOMA, ADENOCARCINOMA, Dose [Carcinogen]: 150 MG/KG BW IN 0.9% SALINE ADJUSTED TO PH 6.8 ONCE, Promoter: NONE USED
  tumour outcome (control, treated, inhibition, significance): 26%, 0%, 100%, p<0.05
Carcinogen: 1,2-DIMETHYLHYDRAZINE, 540-73-8, Dose [Inhibitor]: 1% IN 20% FAT DIET DAILY STARTING 2 WK BEFORE CARCINOGEN TREATMENT AND CONTINUING FOR DURATION OF STUDY (STUDY DURATION:, Species: RAT, Strain/Sex: F344/FEMALE, Target Tissue: Type of Lesion: KIDNEY: NEPHROBLASTOMA, ADENOCARCINOMA, Dose [Carcinogen]: 150 MG/KG BW IN 0.9% SALINE ADJUSTED TO PH 6.8 ONCE, Promoter: NONE USED
  tumour outcome (control, treated, inhibition, significance): 22%, 0%, 100%, p<0.05
Carcinogen: 1,2-DIMETHYLHYDRAZINE, 540-73-8, Dose [Inhibitor]: 1% IN 20% FAT DIET DAILY STARTING 2 WK BEFORE START OF CARCINOGEN TREATMENT AND CONTINUING FOR DURATION OF STUDY (STUDY, Species: RAT, Strain/Sex: F344/FEMALE, Target Tissue: Type of Lesion: COLON: ADENOCARCINOMA, Dose [Carcinogen]: 20 MG/KG BW IN 0.9% SALINE 1/WK FOR 10 WK, Promoter: NONE USED
  tumour outcome (control, treated, inhibition, significance): 33%, 39%, -18%, not significant
Carcinogen: 1,2-DIMETHYLHYDRAZINE, 540-73-8, Dose [Inhibitor]: 1% IN 20% FAT DIET DAILY STARTING 2 WK BEFORE START OF CARCINOGEN TREATMENT AND CONTINUING FOR DURATION OF STUDY (STUDY, Species: RAT, Strain/Sex: F344/FEMALE, Target Tissue: Type of Lesion: COLON: ADENOMA, Dose [Carcinogen]: 20 MG/KG BW IN 0.9% SALINE 1/WK FOR 10 WK, Promoter: NONE USED
  tumour outcome (control, treated, inhibition, significance): 42%, 39%, 7%, not significant
Carcinogen: 1,2-DIMETHYLHYDRAZINE, 540-73-8, Dose [Inhibitor]: 1% IN 20% FAT DIET DAILY STARTING 2 WK BEFORE START OF CARCINOGEN TREATMENT AND CONTINUING FOR DURATION OF STUDY (STUDY, Species: RAT, Strain/Sex: F344/FEMALE, Target Tissue: Type of Lesion: DUODENUM: ADENOCARCINOMA, ADENOMA, Dose [Carcinogen]: 20 MG/KG BW IN 0.9% SALINE 1/WK FOR 10 WK, Promoter: NONE USED
  tumour outcome (control, treated, inhibition, significance): 25%, 26%, -4%, not significant
Carcinogen: 1,2-DIMETHYLHYDRAZINE, 540-73-8, Dose [Inhibitor]: 1% IN 20% FAT DIET DAILY STARTING 2 WK BEFORE START OF CARCINOGEN TREATMENT AND CONTINUING FOR DURATION OF STUDY (STUDY, Species: RAT, Strain/Sex: F344/FEMALE, Target Tissue: Type of Lesion: EAR DUCT: SQUAMOUS CELL CARCINOMA, Dose [Carcinogen]: 20 MG/KG BW IN 0.9% SALINE 1/WK FOR 10 WK, Promoter: NONE USED
  tumour outcome (control, treated, inhibition, significance): 13%, 13%, 0%, not significant
Carcinogen: 1,2-DIMETHYLHYDRAZINE, 540-73-8, Dose [Inhibitor]: 1% IN 20% FAT DIET DAILY STARTING 2 WK BEFORE START OF CARCINOGEN TREATMENT AND CONTINUING FOR DURATION OF STUDY (STUDY, Species: RAT, Strain/Sex: F344/FEMALE, Target Tissue: Type of Lesion: KIDNEY: NEPHROBLASTOMA, ADENOCARCINOMA, Dose [Carcinogen]: 20 MG/KG BW IN 0.9% SALINE 1/WK FOR 10 WK, Promoter: NONE USED
  tumour outcome (control, treated, inhibition, significance): 13%, 18%, -38%, not significant
Carcinogen: 1,2-DIMETHYLHYDRAZINE, 540-73-8, Dose [Inhibitor]: 1.2% IN DIET DAILY STARTING 2 WK PRIOR TO CARCINOGEN TREATMENT AND CONTINUING FOR DURATION OF STUDY (STUDY DURATION: 28, Species: RAT, Strain/Sex: SPRAGUE-DAWLEY/MALE, Target Tissue: Type of Lesion: COLON: ADENOCARCINOMA, Dose [Carcinogen]: 20 MG/KG BW IN BACTERIOSTATIC SALINE 1/WK FOR 20 WK, Promoter: NONE USED
  tumour outcome (control, treated, inhibition, significance): 64%, 38%, 41%, not calculated
Carcinogen: 3-METHYLCHOLANTHRENE, 56-49-5, Dose [Inhibitor]: 0, 1.25% IN DRINKING WATER FOR DURATION OF STUDY BEGINNING 15 D PRIOR TO CARCINOGEN TREATMENT (STUDY DURATION: 150 D), Species: MOUSE, Strain/Sex: LACA/MALE, Target Tissue: Type of Lesion: GLANDULAR STOMACH: TUMOR, Dose [Carcinogen]: 2.2 MG (AVERAGE DOSE) ON COTTON THREADS IMPLANTED IN GLANDULAR STOMACH, Promoter: NONE USED
  tumour outcome (control, treated, inhibition, significance): 66%, 28%, 58%, p<0.02
Carcinogen: 3-METHYLCHOLANTHRENE, 56-49-5, Dose [Inhibitor]: 0, 2 MG/ML IN DRINKING WATER FOR 6 WK BEGINNING ON FIRST DAY OF CARCINOGEN TREATMENT (STUDY DURATION: 16 WK), Species: MOUSE, Strain/Sex: SWISS/FEMALE, Target Tissue: Type of Lesion: CERVIX: SQUAMOUS CELL CARCINOMA, Dose [Carcinogen]: 600 UG IN BEESWAX IMPREGNATED COTTON THREAD FOR DURATION OF STUDY, Promoter: NONE USED
  tumour outcome (control, treated, inhibition, significance): 16/21 (76%), 5/15 (33%), 57%, p<0.02
Carcinogen: 3-METHYLCHOLANTHRENE, 56-49-5, Dose [Inhibitor]: 0, 2 MG/ML IN DRINKING WATER FOR 10 WK BEGINNING 6 WK AFTER FIRST DAY OF CARCINOGEN TREATMENT (STUDY DURATION: 16 WK), Species: MOUSE, Strain/Sex: SWISS/FEMALE, Target Tissue: Type of Lesion: CERVIX: SQUAMOUS CELL CARCINOMA, Dose [Carcinogen]: 600 UG IN BEESWAX IMPREGNATED COTTON THREAD FOR DURATION OF STUDY, Promoter: NONE USED
  tumour outcome (control, treated, inhibition, significance): 16/21 (76%), 8/12 (67%), 12%, not significant
Carcinogen: 3-METHYLCHOLANTHRENE, 56-49-5, Dose [Inhibitor]: 0, 2 MG/ML IN DRINKING WATER FOR 16 WK (STUDY DURATION: 16 WK), Species: MOUSE, Strain/Sex: SWISS/FEMALE, Target Tissue: Type of Lesion: CERVIX: SQUAMOUS CELL CARCINOMA, Dose [Carcinogen]: 600 UG IN BEESWAX IMPREGNATED COTTON THREAD FOR DURATION OF STUDY, Promoter: NONE USED
  tumour outcome (control, treated, inhibition, significance): 16/21 (76%), 5/15 (33%), 57%, p<0.02
Carcinogen: 7,12-DIMETHYLBENZ[A]ANTHRACENE, 57-97-6, Dose [Inhibitor]: 0, 30 MG/ML IN DRINKING WATER FROM 40-90 D OF AGE THEN 0, 20 MG/ML FROM 90-180 D OF AGE AND 0, 10 MG/ML FROM 180-240 D O, Dose [Inhibitor]: 0, 30 MG/ML IN DRINKING WATER FROM 40-90 D OF AGE THEN 0, 20 MG/ML FROM 90-180 D OF AGE AND 0, 10 MG/ML FROM 180-240 D O, Species: RAT, Strain/Sex: SPRAGUE-DAWLEY/FEMALE, Target Tissue: Type of Lesion: MAMMARY GLAND: ADENOCARCINOMA, FIBROADENOMA, Dose [Carcinogen]: 5 MG IN 0.2 ML SESAME OIL 1/2 D FOR 12 D BEGINNING AT 50 D OF AGE, Promoter: NONE USED
  tumour outcome (control, treated, inhibition, significance): 100%, 57%, 43%, p<0.001
